From patent US20240382483A1, “HETEROCYCLIC EGFR INHIBITORS FOR USE IN THE TREATMENT OF CANCER” (Blueprint Medicines Corporation, priority 2021, published 2024)

What was measured:
EGFR (L858R T790M C797S) = target: T1, EGFR (L858R T790M C797S) (Homo sapiens, UniProt P00533, C797S/L858R/T790M); test: Biochemical EGFR inhibition assay (Caliper mobility shift), EGFR LRTMCS; conditions: LRTMCS (PH) IC50 (nM) @ 1 mM ATP (Num), EGFR LRTMCS mutant
T1 construct: purchased SignalChem E10-122VG
How it was run: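 Apparent IC50s were derived by plotting percent activity against the log of compound concentration. Activity was measured as phosphopeptide electrophoretically separated from substrate, after reactions at room temperature reached 10% to 20% phosphorylation and were halted with 35 mM EDTA.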

[1] = target: T2, intracellular phosphorylation of EGFR in NCI-H1975 cell line that harbors the EGFR L858R T790M mutations (Homo sapiens, UniProt P00533, L858R/T790M); test: NCI-H1975 pEGFR AlphaLISA assay; assay type: cell-based; conditions: NCI-H1975 cells (EGFR L858R T790M), p-EGFR (Tyr1068), 4-5 hours incubation; read-out: Ext pEGFR H1975 GMean IC50 (nM) Protocol: @Pharmaron AlphaLISA (Num)
T2 construct: NCI-H1975 cell line that harbors the EGFR L858R T790M mutations (ATCC, CRL-5908); host or cells: NCI-H1975
T2 sequence (P00533 25-1210 T790M/L858R): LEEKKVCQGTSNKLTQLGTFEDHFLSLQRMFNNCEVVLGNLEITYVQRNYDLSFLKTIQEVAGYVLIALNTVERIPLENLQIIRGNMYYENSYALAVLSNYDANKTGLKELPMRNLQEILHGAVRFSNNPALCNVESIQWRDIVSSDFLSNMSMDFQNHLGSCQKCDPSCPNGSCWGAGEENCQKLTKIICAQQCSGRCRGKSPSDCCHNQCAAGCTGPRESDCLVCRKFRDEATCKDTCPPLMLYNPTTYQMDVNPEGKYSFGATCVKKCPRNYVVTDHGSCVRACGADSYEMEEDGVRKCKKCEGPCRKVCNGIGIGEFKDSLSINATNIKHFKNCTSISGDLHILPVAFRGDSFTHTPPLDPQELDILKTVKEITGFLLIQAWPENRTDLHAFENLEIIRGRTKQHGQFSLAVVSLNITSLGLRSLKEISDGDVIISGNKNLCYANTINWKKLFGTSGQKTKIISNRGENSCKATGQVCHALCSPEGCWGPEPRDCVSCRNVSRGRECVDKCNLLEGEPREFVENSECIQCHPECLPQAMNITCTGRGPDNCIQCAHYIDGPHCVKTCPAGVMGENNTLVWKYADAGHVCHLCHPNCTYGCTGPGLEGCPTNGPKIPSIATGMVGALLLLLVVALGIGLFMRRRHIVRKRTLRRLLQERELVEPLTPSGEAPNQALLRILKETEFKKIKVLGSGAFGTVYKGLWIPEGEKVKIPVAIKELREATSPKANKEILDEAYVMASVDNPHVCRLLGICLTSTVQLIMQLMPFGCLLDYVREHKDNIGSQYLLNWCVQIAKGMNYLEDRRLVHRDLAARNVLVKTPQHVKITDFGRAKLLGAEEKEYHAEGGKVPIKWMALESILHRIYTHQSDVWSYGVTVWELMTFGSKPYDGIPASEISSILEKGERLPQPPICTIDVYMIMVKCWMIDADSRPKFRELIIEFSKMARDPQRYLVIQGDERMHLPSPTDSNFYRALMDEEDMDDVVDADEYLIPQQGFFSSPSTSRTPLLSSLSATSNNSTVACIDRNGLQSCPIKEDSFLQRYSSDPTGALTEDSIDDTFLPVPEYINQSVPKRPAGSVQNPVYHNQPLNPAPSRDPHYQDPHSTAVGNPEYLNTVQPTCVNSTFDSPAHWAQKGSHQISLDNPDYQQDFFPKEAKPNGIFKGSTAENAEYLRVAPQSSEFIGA
Experimental: On the next day, the test compounds and DMSO control were added into H1975 cell plate followed by incubation at 37C/5% CO2 for 4-5 hours. […] Then 5 μL of a donor bead mix was added to each well followed by overnight incubation at room temperature in dark. On the next day, the plate was read at a compatible plate reader to obtain pEGFR signal. Percent of pEGFR inhibition was plotted against log concentration of compounds to generate IC50 values.

T1 sequence (P00533 25-1210 T790M/C797S/L858R): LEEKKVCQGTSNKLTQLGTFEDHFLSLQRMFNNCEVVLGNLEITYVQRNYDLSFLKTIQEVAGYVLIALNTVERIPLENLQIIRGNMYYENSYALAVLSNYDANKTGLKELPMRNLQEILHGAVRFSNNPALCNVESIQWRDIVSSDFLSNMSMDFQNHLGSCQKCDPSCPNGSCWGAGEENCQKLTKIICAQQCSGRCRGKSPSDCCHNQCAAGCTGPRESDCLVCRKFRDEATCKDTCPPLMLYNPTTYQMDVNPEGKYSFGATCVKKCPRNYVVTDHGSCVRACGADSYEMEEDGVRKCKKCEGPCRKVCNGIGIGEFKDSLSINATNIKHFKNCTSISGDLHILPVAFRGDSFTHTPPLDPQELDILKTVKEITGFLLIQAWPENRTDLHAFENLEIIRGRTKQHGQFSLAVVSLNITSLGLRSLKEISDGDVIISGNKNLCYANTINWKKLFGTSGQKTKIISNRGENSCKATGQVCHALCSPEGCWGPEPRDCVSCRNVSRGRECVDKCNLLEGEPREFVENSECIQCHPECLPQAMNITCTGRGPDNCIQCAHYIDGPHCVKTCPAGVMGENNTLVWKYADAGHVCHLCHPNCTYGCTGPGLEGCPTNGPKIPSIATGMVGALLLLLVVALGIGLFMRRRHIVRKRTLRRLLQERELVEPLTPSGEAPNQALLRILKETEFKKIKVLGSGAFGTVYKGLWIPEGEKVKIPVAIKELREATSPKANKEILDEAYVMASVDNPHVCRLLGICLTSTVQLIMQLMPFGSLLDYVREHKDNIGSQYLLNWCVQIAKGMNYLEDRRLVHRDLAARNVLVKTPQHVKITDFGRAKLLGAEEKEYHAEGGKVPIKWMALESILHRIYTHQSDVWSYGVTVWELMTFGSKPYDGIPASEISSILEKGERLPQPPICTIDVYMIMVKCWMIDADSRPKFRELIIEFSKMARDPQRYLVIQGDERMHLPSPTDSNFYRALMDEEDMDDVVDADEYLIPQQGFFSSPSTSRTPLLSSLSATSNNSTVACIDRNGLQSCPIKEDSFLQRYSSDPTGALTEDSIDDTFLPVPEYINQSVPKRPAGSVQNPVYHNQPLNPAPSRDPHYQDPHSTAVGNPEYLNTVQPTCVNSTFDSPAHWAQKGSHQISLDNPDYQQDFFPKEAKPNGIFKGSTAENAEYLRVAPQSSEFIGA

Compound	IC50 (EGFR (L858R T790M C797S)) [nM]	IC50 [1] [nM]
CC(C)c1ccc(N2CC(c3nncn3C)C2)c2cnc(Nc3ccnc(N4CC[C@@H](O)[C@@](C)(F)C4)n3)cc12 [Example 112, (3S,4R)-3-fluoro-1-(4-((5-isopropyl-8-(3-(4-methyl-4H-1,2,4-triazol-3-yl)azetidin-1-yl)isoquinolin-3-yl)amino)pyrimidin-2-yl)-3-methylpiperidin-4-ol]	< 15	10 to 20
CC(C)c1ccc(N2C[C@H](n3ccnn3)[C@H]2C)c2cnc(Nc3ccnc(N4CCC(C)(O)CC4)n3)cc12 [Example 129, 1-(4-((5-isopropyl-8-((2R,3S)-2-methyl-3-(1H-1,2,3-triazol-1-yl)azetidin-1-yl)isoquinolin-3-yl)amino)pyrimidin-2-yl)-4-methylpiperidin-4-ol]	30 to 100	20 to 30
CC(C)c1ncc(N2CC[C@H]2C)c2cnc(Nc3ccnc(N4CC[C@@H](O)[C@@](C)(F)C4)n3)cc12 [Example 106, (3S,4R)-3-fluoro-1-(4-((5-isopropyl-8-((R)-2-methylazetidin-1-yl)-2,6-naphthyridin-3-yl)amino)pyrimidin-2-yl)-3-methylpiperidin-4-ol]	< 15	20 to 30
CNC[C@@H]1CCN1c1ncc(C(C)C)c2cc(Nc3ccnc(N4CC[C@H](OC)[C@H](F)C4)n3)ncc12 [Example 164, N-(2-((3R,4S)-3-fluoro-4-methoxypiperidin-1-yl)pyrimidin-4-yl)-5-isopropyl-8-((S)-2-((methylamino)methyl)azetidin-1-yl)-2,7-naphthyridin-3-amine]	< 15	30 to 50
CC(C)c1cnc(N2CC[C@@H](CS(C)(=O)=O)C2)c2cnc(Nc3ccnc(N4CC[C@@H](O)[C@@](C)(F)C4)n3)cc12 (single isomer, unassigned) [Example 207, (3S,4R)-3-fluoro-1-(4-((5-isopropyl-8-((R)-3-((methylsulfonyl)methyl)pyrrolidin-1-yl)-2,7-naphthyridin-3-yl)amino)pyrimidin-2-yl)-3-methylpiperidin-4-ol or (3S,4R)-3-fluoro-1-(4-((5-isopropyl-8-((S)-3-((methylsulfonyl)methyl)pyrrolidin-1-yl)-2,7-naphthyridin-3-yl)amino)pyrimidin-2-yl)-3-methylpiperidin-4-ol]	< 15	20 to 30
CC(C)c1cnc(N2C[C@H](O)[C@H]2C)c2cnc(Nc3ccnc(N4CC[C@@H](O)[C@@H](F)C4)n3)cc12 [Example 154, (3S,4R)-3-fluoro-1-(4-((8-((2R,3S)-3-hydroxy-2-methylazetidin-1-yl)-5-isopropyl-2,7-naphthyridin-3-yl)amino)pyrimidin-2-yl)piperidin-4-ol]	< 15	10 to 20
CC(C)c1cnc(N2CC(n3cncn3)C2)c2cnc(Nc3ccnc(N4CC[C@@H](O)[C@@](C)(F)C4)n3)cc12 [Example 88, (3S,4R)-1-(4-((8-(3-(1H-1,2,4-triazol-1-yl)azetidin-1-yl)-5-isopropyl-2,7-naphthyridin-3-yl)amino)pyrimidin-2-yl)-3-fluoro-3-methylpiperidin-4-ol]	< 15	30 to 50
CCOc1cnc(N2CC[C@@H]2C)c2cnc(Nc3ccnc(N4CC[C@@H](O)[C@@](C)(F)C4)n3)cc12 (single isomer, unassigned) [Example 182, (3S,4R)-1-(4-((5-ethoxy-8-((S)-2-methylazetidin-1-yl)-2,7-naphthyridin-3-yl)amino)pyrimidin-2-yl)-3-fluoro-3-methylpiperidin-4-ol or (3S,4R)-1-(4-((5-ethoxy-8-((R)-2-methylazetidin-1-yl)-2,7-naphthyridin-3-yl)amino)pyrimidin-2-yl)-3-fluoro-3-methylpiperidin-4-ol]	30 to 100	> 50
[2H]C([2H])([2H])O[C@@H]1CCN(c2nccc(Nc3cc4c(C(C)C)cnc(N5C[C@H](O)[C@H]5C)c4cn3)n2)C[C@@H]1F [Example 139, (2R,3S)-1-(6-((2-((3S,4R)-3-fluoro-4-(methoxy-d3)piperidin-1-yl)pyrimidin-4-yl)amino)-4-isopropyl-2,7-naphthyridin-1-yl)-2-methylazetidin-3-ol]	< 15	< 10
C[C@@H]1[C@H](F)CN1c1ncc([C@@H](C)CO)c2cc(Nc3ccnc(N4CC[C@@H](O)[C@@](C)(F)C4)n3)ncc12 (single isomer, unassigned) [Example 210, (3S,4R)-3-fluoro-1-(4-((8-((2R,3R)-3-fluoro-2-methylazetidin-1-yl)-5-((R)-1-hydroxypropan-2-yl)-2,7-naphthyridin-3-yl)amino)pyrimidin-2-yl)-3-methylpiperidin-4-ol or (3S,4R)-3-fluoro-1-(4-((8-((2R,3R)-3-fluoro-2-methylazetidin-1-yl)-5-((S)-1-hydroxypropan-2-yl)-2,7-naphthyridin-3-yl)amino)pyrimidin-2-yl)-3-methylpiperidin-4-ol]	< 15	10 to 20
CNC(=O)C1(F)CN(c2ncc(C(C)C)c3cc(Nc4ccnc(N5CC[C@@H](O)[C@@](C)(F)C5)n4)ncc23)C1 [Example 85, 3-fluoro-1-(6-((2-((3S,4R)-3-fluoro-4-hydroxy-3-methylpiperidin-1-yl)pyrimidin-4-yl)amino)-4-isopropyl-2,7-naphthyridin-1-yl)-N-methylazetidine-3-carboxamide]	20 to 30	30 to 50
CO[C@H]1CCN(c2nccc(Nc3cc4c(C(C)C)cnc(N5CC(O)C5)c4cn3)n2)C[C@H]1F [Example 44, 1-(6-((2-((3R,4S)-3-fluoro-4-methoxypiperidin-1-yl)pyrimidin-4-yl)amino)-4-isopropyl-2,7-naphthyridin-1-yl)azetidin-3-ol]	< 15	20 to 30
CC(C)c1cnc(N2CC[C@H]2[C@@H](C)O)c2cnc(Nc3ccnc(N4CC[C@@H](O)[C@@](C)(F)C4)n3)cc12 (single isomer, unassigned) [Example 65, (3S,4R)-3-fluoro-1-(4-((8-((S)-2-((R)-1-hydroxyethyl)azetidin-1-yl)-5-isopropyl-2,7-naphthyridin-3-yl)amino)pyrimidin-2-yl)-3-methylpiperidin-4-ol or (3S,4R)-3-fluoro-1-(4-((8-((S)-2-((S)-1-hydroxyethyl)azetidin-1-yl)-5-isopropyl-2,7-naphthyridin-3-yl)amino)pyrimidin-2-yl)-3-methylpiperidin-4-ol]	< 15	20 to 30
CC(C)c1cnc(N2C[C@H](O)[C@H]2C)c2cnc(Nc3ccnc(N4CC[C@@H](O)C5(CC5)C4)n3)cc12 (single isomer, unassigned) [Example 169, (R)-5-(4-((8-((2R,3S)-3-hydroxy-2-methylazetidin-1-yl)-5-isopropyl-2,7-naphthyridin-3-yl)amino)pyrimidin-2-yl)-5-azaspiro[2.5]octan-8-ol or (S)-5-(4-((8-((2R,3S)-3-hydroxy-2-methylazetidin-1-yl)-5-isopropyl-2,7-naphthyridin-3-yl)amino)pyrimidin-2-yl)-5-azaspiro[2.5]octan-8-ol]	< 15	30 to 50
CC(C)c1cnc(-c2cn(C)nn2)c2cnc(Nc3ccnc(N4CCC5(CCO5)CC4)n3)cc12 [Example 23, N-(2-(1-oxa-7-azaspiro[3.5]nonan-7-yl)pyrimidin-4-yl)-5-isopropyl-8-(1-methyl-1H-1,2,3-triazol-4-yl)-2,7-naphthyridin-3-amine]	< 15	> 50
CNC(=O)CC1CN(c2ncc(C(C)C)c3cc(Nc4ccnc(N5CC[C@@H](O)[C@@](C)(F)C5)n4)ncc23)C1 [Example 87, 2-(1-(6-((2-((3S,4R)-3-fluoro-4-hydroxy-3-methylpiperidin-1-yl)pyrimidin-4-yl)amino)-4-isopropyl-2,7-naphthyridin-1-yl)azetidin-3-yl)-N-methylacetamide]	< 15	20 to 30
CC(C)c1cnc(N2CC[C@]23CCN(C)C3)c2cnc(Nc3ccnc(N4CC[C@@H](O)[C@@](C)(F)C4)n3)cc12 (single isomer, unassigned) [Example 198, (3S,4R)-3-fluoro-1-(4-((5-isopropyl-8-((S)-6-methyl-1,6-diazaspiro[3.4]octan-1-yl)-2,7-naphthyridin-3-yl)amino)pyrimidin-2-yl)-3-methylpiperidin-4-ol or (3S,4R)-3-fluoro-1-(4-((5-isopropyl-8-((R)-6-methyl-1,6-diazaspiro[3.4]octan-1-yl)-2,7-naphthyridin-3-yl)amino)pyrimidin-2-yl)-3-methylpiperidin-4-ol]	15 to 20	30 to 50
CC(C)c1cnc(N2CC(CC(=O)N(C)C)C2)c2cnc(Nc3ccnc(N4CC[C@@H](O)[C@@](C)(F)C4)n3)cc12 [Example 86, 2-(1-(6-((2-((3S,4R)-3-fluoro-4-hydroxy-3-methylpiperidin-1-yl)pyrimidin-4-yl)amino)-4-isopropyl-2,7-naphthyridin-1-yl)azetidin-3-yl)-N,N-dimethylacetamide]	20 to 30	30 to 50
